What was measured:
Assay in all cases: Histone peptide microarray
Type in all cases: binding, human
KDM5B (1) = conditions: total n = 4; for Array Heatmap signal, KDM5B (1): sheet "Array Heatmap", GST-tagged reader, histone peptide array
Procedure, shortened: (§1)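 GST-tagged PHD finger readers were expressed, purified and applied at 0.5 μM to a microarray of 293 synthetic histone peptides carrying single or combinatorial PTMs, using an optimized protocol. Binding signals are averages with standard deviation from 4 replicates.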

KDM5B (3) = conditions: total n = 4; for Array Heatmap signal, KDM5B (3): sheet "Array Heatmap", GST-tagged reader, histone peptide array
Procedure, shortened: as §1

DIDO1 = conditions: total n = 4; for Array Heatmap signal, DIDO1: sheet "Array Heatmap", GST-tagged reader, histone peptide array
Procedure, shortened: as §1

CHD4 (PPCC) = conditions: total n = 4; for Array Heatmap signal, CHD4 (PPCC): sheet "Array Heatmap", GST-tagged reader, histone peptide array
Procedure, shortened: as §1

ING3 = conditions: total n = 4; for Array Heatmap signal, ING3: sheet "Array Heatmap", GST-tagged reader, histone peptide array
Procedure, shortened: as §1

ING4 = conditions: total n = 4; for Array Heatmap signal, ING4: sheet "Array Heatmap", GST-tagged reader, histone peptide array
Procedure, shortened: as §1

PHF8 = conditions: total n = 4; for Array Heatmap signal, PHF8: sheet "Array Heatmap", GST-tagged reader, histone peptide array
Procedure, shortened: as §1

PHF23 = conditions: total n = 4; for Array Heatmap signal, PHF23: sheet "Array Heatmap", GST-tagged reader, histone peptide array
Procedure, shortened: as §1

KDM5A (3) = conditions: total n = 4; for Array Heatmap signal, KDM5A (3): sheet "Array Heatmap", GST-tagged reader, histone peptide array
Procedure, shortened: as §1

KDM4C (TTP) = conditions: total n = 4; for Array Heatmap signal, KDM4C (TTP): sheet "Array Heatmap", GST-tagged reader, histone peptide array
Procedure, shortened: as §1

ING1 = conditions: total n = 4; for Array Heatmap signal, ING1: sheet "Array Heatmap", GST-tagged reader, histone peptide array
Procedure, shortened: as §1

CHD5 (PCC) = conditions: total n = 4; for Array Heatmap signal, CHD5 (PCC): sheet "Array Heatmap", GST-tagged reader, histone peptide array
Procedure, shortened: as §1

BPTF (PB) = conditions: total n = 4; for Array Heatmap signal, BPTF (PB): sheet "Array Heatmap", GST-tagged reader, histone peptide array
Procedure, shortened: as §1

KDM7A = conditions: total n = 4; for Array Heatmap signal, KDM7A: sheet "Array Heatmap", GST-tagged reader, histone peptide array
Procedure, shortened: as §1

PHF2 = conditions: total n = 4; for Array Heatmap signal, PHF2: sheet "Array Heatmap", GST-tagged reader, histone peptide array
Procedure, shortened: as §1

SP140L = conditions: total n = 4; for Array Heatmap signal, SP140L: sheet "Array Heatmap", GST-tagged reader, histone peptide array
Procedure, shortened: as §1

AIRE (PP) = conditions: total n = 4; for Array Heatmap signal, AIRE (PP): sheet "Array Heatmap", GST-tagged reader, histone peptide array
Procedure, shortened: as §1

PHF13 = conditions: total n = 4; for Array Heatmap signal, PHF13: sheet "Array Heatmap", GST-tagged reader, histone peptide array
Procedure, shortened: as §1

BAZ2B = conditions: total n = 4; for Array Heatmap signal, BAZ2B: sheet "Array Heatmap", GST-tagged reader, histone peptide array
Procedure, shortened: as §1

ING5 = conditions: total n = 4; for Array Heatmap signal, ING5: sheet "Array Heatmap", GST-tagged reader, histone peptide array
Procedure, shortened: as §1

MLL5 = conditions: total n = 4; for Array Heatmap signal, MLL5: sheet "Array Heatmap", GST-tagged reader, histone peptide array
Procedure, shortened: as §1

PHRF1 (RP) = conditions: total n = 4; for Array Heatmap signal, PHRF1 (RP): sheet "Array Heatmap", GST-tagged reader, histone peptide array
Procedure, shortened: as §1

CHD5 (PPCC) = conditions: total n = 4; for Array Heatmap signal, CHD5 (PPCC): sheet "Array Heatmap", GST-tagged reader, histone peptide array
Procedure, shortened: as §1

DPF2 (PPC2W2) = conditions: total n = 4; for Array Heatmap signal, DPF2 (PPC2W2): sheet "Array Heatmap", GST-tagged reader, histone peptide array
Procedure, shortened: as §1

TAF3 = conditions: total n = 4; for Array Heatmap signal, TAF3: sheet "Array Heatmap", GST-tagged reader, histone peptide array
Procedure, shortened: as §1

PHF21A = conditions: total n = 4; for Array Heatmap signal, PHF21A: sheet "Array Heatmap", GST-tagged reader, histone peptide array
Procedure, shortened: as §1

KDM5A (1) = conditions: total n = 4; for Array Heatmap signal, KDM5A (1): sheet "Array Heatmap", GST-tagged reader, histone peptide array
Procedure, shortened: as §1

TRIM66 (PB) = conditions: total n = 4; for Array Heatmap signal, TRIM66 (PB): sheet "Array Heatmap", GST-tagged reader, histone peptide array
Procedure, shortened: as §1

RAG2 = conditions: total n = 4; for Array Heatmap signal, RAG2: sheet "Array Heatmap", GST-tagged reader, histone peptide array
Procedure, shortened: as §1

MORC3 (CW) = conditions: total n = 4; for Array Heatmap signal, MORC3 (CW): sheet "Array Heatmap", GST-tagged reader, histone peptide array
Procedure, shortened: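 Steps: express and purify GST-tagged PHD reader; incubate 0.5 μM protein on a peptide microarray (293 histone peptides, single or combined PTMs) following an optimized protocol; average signal across 4 replicates.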

ING2 = conditions: total n = 4; for Array Heatmap signal, ING2: sheet "Array Heatmap", GST-tagged reader, histone peptide array
Procedure, shortened: as §1

H3K9ac + K14ac: H3 1-20
Array Heatmap signal (histone peptide microarray) (KDM5B (1); GST-tagged KDM5B (1), sheet Array Heatmap, each array performed twice): 0.9142 | Array Heatmap signal (histone peptide microarray) (KDM5B (3); GST-tagged KDM5B (3), sheet Array Heatmap, each array performed twice): 0.6203 | Array Heatmap signal (histone peptide microarray) (DIDO1; GST-tagged DIDO1, sheet Array Heatmap, each array performed twice): 0.6252 | Array Heatmap signal (histone peptide microarray) (CHD4 (PPCC); GST-tagged CHD4 (PPCC = Dual PHD + Dual Chromodomain), sheet Array Heatmap, each array performed twice): 0.673 | Array Heatmap signal (histone peptide microarray) (ING3; GST-tagged ING3, sheet Array Heatmap, each array performed twice): 0.4549 | Array Heatmap signal (histone peptide microarray) (ING4; GST-tagged ING4, sheet Array Heatmap, each array performed twice): 0.4734 | Array Heatmap signal (histone peptide microarray) (PHF8; GST-tagged PHF8, sheet Array Heatmap, each array performed twice): 0.3842 | Array Heatmap signal (histone peptide microarray) (PHF23; GST-tagged PHF23, sheet Array Heatmap, each array performed twice): 0.5024 | Array Heatmap signal (histone peptide microarray) (KDM5A (3); GST-tagged KDM5A (3), sheet Array Heatmap, each array performed twice): 0.5178 | Array Heatmap signal (histone peptide microarray) (KDM4C (TTP); GST-tagged KDM4C (TTP = Tandem Tudor domain + PHD), sheet Array Heatmap, each array performed twice): 0.5191 | Array Heatmap signal (histone peptide microarray) (ING1; GST-tagged ING1, sheet Array Heatmap, each array performed twice): 0.5104 | Array Heatmap signal (histone peptide microarray) (CHD5 (PCC); GST-tagged CHD5 (PCC = PHD + Dual Chromodomain), sheet Array Heatmap, each array performed twice): 0.9958 | Array Heatmap signal (histone peptide microarray) (BPTF (PB); GST-tagged BPTF (PB = PHD + Bromodomain), sheet Array Heatmap, each array performed twice): 0.3651 | Array Heatmap signal (histone peptide microarray) (KDM7A; GST-tagged KDM7A, sheet Array Heatmap, each array performed twice): 0.4362 | Array Heatmap signal (histone peptide microarray) (PHF2; GST-tagged PHF2, sheet Array Heatmap, each array performed twice): 0.4774 | Array Heatmap signal (histone peptide microarray) (SP140L; GST-tagged SP140L, sheet Array Heatmap, each array performed twice): 0.3541 | Array Heatmap signal (histone peptide microarray) (AIRE (PP); GST-tagged AIRE (PP), sheet Array Heatmap, each array performed twice): 0.699 | Array Heatmap signal (histone peptide microarray) (PHF13; GST-tagged PHF13, sheet Array Heatmap, each array performed twice): 0.6041 | Array Heatmap signal (histone peptide microarray) (BAZ2B; GST-tagged BAZ2B, sheet Array Heatmap, each array performed twice): 1 | Array Heatmap signal (histone peptide microarray) (ING5; GST-tagged ING5, sheet Array Heatmap, each array performed twice): 0.3504 | Array Heatmap signal (histone peptide microarray) (MLL5; GST-tagged MLL5, sheet Array Heatmap, each array performed twice): 0.5394 | Array Heatmap signal (histone peptide microarray) (PHRF1 (RP); GST-tagged PHRF1 (RP), sheet Array Heatmap, each array performed twice): 1 | Array Heatmap signal (histone peptide microarray) (CHD5 (PPCC); GST-tagged CHD5 (PPCC = Dual PHD + Dual Chromodomain), sheet Array Heatmap, each array performed twice): 0.6001 | Array Heatmap signal (histone peptide microarray) (DPF2 (PPC2W2); GST-tagged DPF2 (PPC2W2 = Dual PHD + C2W2-type Zn-finger), sheet Array Heatmap, each array performed twice): 1 | Array Heatmap signal (histone peptide microarray) (TAF3; GST-tagged TAF3, sheet Array Heatmap, each array performed twice): 0.3149 | Array Heatmap signal (histone peptide microarray) (PHF21A; GST-tagged PHF21A, sheet Array Heatmap, each array performed twice): 0.5392 | Array Heatmap signal (histone peptide microarray) (KDM5A (1); GST-tagged KDM5A (1), sheet Array Heatmap, each array performed twice): 0.5569 | Array Heatmap signal (histone peptide microarray) (TRIM66 (PB); GST-tagged TRIM66 (PB = PHD + Bromodomain), sheet Array Heatmap, each array performed twice): 0.9112 | Array Heatmap signal (histone peptide microarray) (RAG2; GST-tagged RAG2, sheet Array Heatmap, each array performed twice): 0.2862 | Array Heatmap signal (histone peptide microarray) (MORC3 (CW); GST-tagged MORC3 (CW = CW-type Zn-finger), sheet Array Heatmap, each array performed twice): 0.5873 | Array Heatmap signal (histone peptide microarray) (ING2; GST-tagged ING2, sheet Array Heatmap, each array performed twice): 0.5932

H3K9ac + S10p: H3 1-20
Array Heatmap signal, KDM5B (1) (KDM5B (1)): 0.6761 | Array Heatmap signal, KDM5B (3) (KDM5B (3)): 0.53 | Array Heatmap signal, DIDO1 (DIDO1): 0.6052 | Array Heatmap signal, CHD4 (PPCC) (CHD4 (PPCC)): 0.5496 | Array Heatmap signal, ING3 (ING3): 0.4478 | Array Heatmap signal, ING4 (ING4): 0.4766 | Array Heatmap signal, PHF8 (PHF8): 0.3696 | Array Heatmap signal, PHF23 (PHF23): 0.5104 | Array Heatmap signal, KDM5A (3) (KDM5A (3)): 0.462 | Array Heatmap signal, KDM4C (TTP) (KDM4C (TTP)): 0.5441 | Array Heatmap signal, ING1 (ING1): 0.4982 | Array Heatmap signal, CHD5 (PCC) (CHD5 (PCC)): 0.846 | Array Heatmap signal, BPTF (PB) (BPTF (PB)): 0.3364 | Array Heatmap signal, KDM7A (KDM7A): 0.5012 | Array Heatmap signal, PHF2 (PHF2): 0.4212 | Array Heatmap signal, SP140L (SP140L): 0.3709 | Array Heatmap signal, AIRE (PP) (AIRE (PP)): 0.6057 | Array Heatmap signal, PHF13 (PHF13): 0.5949 | Array Heatmap signal, BAZ2B (BAZ2B): 0.4929 | Array Heatmap signal, ING5 (ING5): 0.3597 | Array Heatmap signal, MLL5 (MLL5): 0.5353 | Array Heatmap signal, PHRF1 (RP) (PHRF1 (RP)): 0.4935 | Array Heatmap signal, CHD5 (PPCC) (CHD5 (PPCC)): 0.5687 | Array Heatmap signal, DPF2 (PPC2W2) (DPF2 (PPC2W2)): 0.6808 | Array Heatmap signal, TAF3 (TAF3): 0.2808 | Array Heatmap signal, PHF21A (PHF21A): 0.4788 | Array Heatmap signal, KDM5A (1) (KDM5A (1)): 0.5046 | Array Heatmap signal, TRIM66 (PB) (TRIM66 (PB)): 0.5818 | Array Heatmap signal, RAG2 (RAG2): 0.2427 | Array Heatmap signal, MORC3 (CW) (MORC3 (CW)): 0.3729 | Array Heatmap signal, ING2 (ING2): 0.597

H3K9me1: H3 1-20 [Peptide H3K9me1]
Array Heatmap signal, KDM5B (1) (KDM5B (1)): 0.68 | Array Heatmap signal, KDM5B (3) (KDM5B (3)): 0.4949 | Array Heatmap signal, DIDO1 (DIDO1): 0.6415 | Array Heatmap signal, CHD4 (PPCC) (CHD4 (PPCC)): 0.6171 | Array Heatmap signal, ING3 (ING3): 0.4876 | Array Heatmap signal, ING4 (ING4): 0.4656 | Array Heatmap signal, PHF8 (PHF8): 0.3494 | Array Heatmap signal, PHF23 (PHF23): 0.5057 | Array Heatmap signal, KDM5A (3) (KDM5A (3)): 0.4739 | Array Heatmap signal, KDM4C (TTP) (KDM4C (TTP)): 0.5061 | Array Heatmap signal, ING1 (ING1): 0.4934 | Array Heatmap signal, CHD5 (PCC) (CHD5 (PCC)): 0.8558 | Array Heatmap signal, BPTF (PB) (BPTF (PB)): 0.3459 | Array Heatmap signal, KDM7A (KDM7A): 0.3983 | Array Heatmap signal, PHF2 (PHF2): 0.4569 | Array Heatmap signal, SP140L (SP140L): 0.3427 | Array Heatmap signal, AIRE (PP) (AIRE (PP)): 0.5694 | Array Heatmap signal, PHF13 (PHF13): 0.594 | Array Heatmap signal, BAZ2B (BAZ2B): 0.4746 | Array Heatmap signal, ING5 (ING5): 0.3437 | Array Heatmap signal, MLL5 (MLL5): 0.5407 | Array Heatmap signal, PHRF1 (RP) (PHRF1 (RP)): 0.6479 | Array Heatmap signal, CHD5 (PPCC) (CHD5 (PPCC)): 0.5585 | Array Heatmap signal, DPF2 (PPC2W2) (DPF2 (PPC2W2)): 0.6871 | Array Heatmap signal, TAF3 (TAF3): 0.2561 | Array Heatmap signal, PHF21A (PHF21A): 0.4979 | Array Heatmap signal, KDM5A (1) (KDM5A (1)): 0.4835 | Array Heatmap signal, TRIM66 (PB) (TRIM66 (PB)): 0.6422 | Array Heatmap signal, RAG2 (RAG2): 0.2526 | Array Heatmap signal, MORC3 (CW) (MORC3 (CW)): 0.4491 | Array Heatmap signal, ING2 (ING2): 0.5783
